From PMC9745132, “Visualization of real-time receptor endocytosis in dopamine neurons enabled by NTSR1-Venus knock-in mice” (Frontiers in Cellular Neuroscience, 2022)
Where “and” joins values, the source holds several entries; their conditions need not be identical. Equal values may be shown once. Where a name gives a salt, the structure may show the parent alone. Read-outs that look alike come from different tables or passages of the source. *1 amine or outer side, *2 acyl side, *3 side chain or, on linkers, in order; H or OH if unused. Where a SMILES comes first, the peptide text is derived from it. [ ]: non-standard residue; d: D form. X1 = NCCCC[C@H](N)CN([C@@H](CCCCN)C(=O)[*:2])[*:1]; Tle = CC(C)(C)[C@H](N)C(=O)O

Experiments:
[1] = test system: hippocampal neurons from Ntsr1^Venus/Venus mice; assay: Intracellular calcium release (Fluo-4) in hippocampal neurons from Ntsr1^Venus/Venus mice; type: cell-based, mouse
Procedure: To isolate hippocampal neurons, P0 pups were removed from the cage of NTSR1-Venus homozygous knock-in breeding pairs. Pups were decapitated, brains were removed dorsal side up into fresh ice-cold Hank’s balanced salt solution (HBSS; Gibco, Grand Island, NY, USA), meninges were removed, and hippocampi were dissected into Hibernate A (Gibco, Grand Island, NY, USA) on ice. Tissue dissociation was carried out with the Papain Dissociation System according to the manufacturer’s protocol (Worthington Biochemical Corporation, Lakewood, NJ, USA). Neurons were plated on Poly-D-Lysine (Sigma) coated surfaces at 100,000 cells per 12 mm coverslip (NeuVitro, Camas, WA, USA) in a 24-well plate for immunostaining or 50,000 cells per well of an 8 well chamber slide (Ibidi, Grafelfing, Germany) for calcium measurements. Plating media [Neurobasal A (Gibco, Grand Island, NY, USA), 1% FBS (Fisher Scientific), 2% B-27 (Gibco, Grand Island, NY, USA), 0.5 mM GlutaMAX (Gibco, Grand Island, NY, USA), and 1x Penicillin/Streptomycin (Invitrogen, Waltham, MA, USA)] was exchanged 1 h after plating to maintenance media (Neurobasal A, 2% B-27, 0.5 mM GlutaMAX, and 1x Penicillin/Streptomycin). Half of the volume of media was exchanged for fresh media every 3–4 days. On day in vitro (DIV) 3 Cytosine arabinoside hydrochloride (Sigma) was added to media with a final concentration of 0.1 μM to decrease glial cell proliferation.
Hippocampal neurons were grown until DIV 7. Fluo-4 NW Calcium Assay kit (Thermo Fisher) was used according to the manufacturer’s protocol. Briefly, drugs were prepared at 4 μM stock solutions in the assay buffer provided without probenecid. […] Fluorescence was imaged with a 10x objective on an (Olympus, Shinjuku City, Tokyo, Japan) IX73 microscope (Fluo-4 em. 506 nm).
Live imaging settings of Fluo-4 were as follows, 79 ms exposure, 2 s intervals for 90 cycles (180 s). […] First regions of interest (ROI) were automatically determined using the analyze particles plug in. […] Relative fluorescence is defined as F/F0 where F corresponds to the cell fluorescence and F0 to the basal fluorescence.

NTSR1-Venus [2] = target: T1, NTSR1-Venus (Mus musculus, UniProt O88319); assay: NTSR1-Venus endocytosis in primary hippocampal neurons (Venus/EEA1 colocalization; live confocal imaging); type: cell-based
T1 construct: monitoring endogenous NTSR1-Venus receptor endocytosis could differentiate NTSR1 agonists; endogenous in cells; host or cells: primary hippocampal neurons from homozygous NTSR1-Venus knock-in mice (C57BL/6N background)
Procedure: To isolate hippocampal neurons, P0 pups were removed from the cage of NTSR1-Venus homozygous knock-in breeding pairs. […] Neurons were plated on Poly-D-Lysine (Sigma) coated surfaces at 100,000 cells per 12 mm coverslip (NeuVitro, Camas, WA, USA) in a 24-well plate for immunostaining or 50,000 cells per well of an 8 well chamber slide (Ibidi, Grafelfing, Germany) for calcium measurements. Plating media [Neurobasal A (Gibco, Grand Island, NY, USA), 1% FBS (Fisher Scientific), 2% B-27 (Gibco, Grand Island, NY, USA), 0.5 mM GlutaMAX (Gibco, Grand Island, NY, USA), and 1x Penicillin/Streptomycin (Invitrogen, Waltham, MA, USA)] was exchanged 1 h after plating to maintenance media (Neurobasal A, 2% B-27, 0.5 mM GlutaMAX, and 1x Penicillin/Streptomycin).

NTSR1-Venus [3] = target: T1, NTSR1-Venus; assay: Gq activation ebBRET (Gq EMTA, p63RhoGEF-RlucII / rGFP-CAAX) in HEK293 cells, Venus tagged NTSR1; type: cell-based; conditions: mean ± SEM
Excerpt: The mouse coding sequence of NTSR1 was PCR amplified from pCMV6-mNTSR1 (Origene, Rockville, MD, USA) and subcloned upstream from the IRES feature with a STOP codon before IRES into pIRES (Invitrogen, Waltham, MA, USA) and pIRES-Venus vector previously described ([Hamdan et al., 2005]) resulting in expression of either untagged NTSR1 or NTSR1-Venus. […] The pIRES vector was used The rGFP-CAAX BRET and Gq GEMTA biosensors construct were generated as previously described ([Namkung et al., 2016]; [Avet et al., 2022]).
HEK293 clonal cell line (HEK293SL cells), hereafter referred as HEK293 cells, were a gift from S. Laporte (McGill University, Montreal, Quebec, Canada) and previously described ([Namkung et al., 2016]). Cells were maintained in Dulbecco’s Modified Eagle Medium (DMEM, Wisent, Saint-Jean-Baptiste, QC, Canada) supplemented with 10% fetal bovine serum (FBS, Wisent) and 1% antibiotics [100 U/mL penicillin and 100 μg/mL streptomycin (PS); Wisent]. Cells were grown at 37°C in 5% CO2 and 90% humidity and checked for mycoplasma contamination. […] The total quantity of DNA was completed at 1 μg with salmon sperm DNA (Invitrogen, Waltham, MA, USA). […]
Forty-eight hours post-transfection, cells were washed once with phosphate-buffered saline (PBS) then incubated 1 h at 37°C in Tyrode buffer (137 mM NaCI, 0.9 mM KCI, 1 mM MgCI2, 1 1.9 mM NaHCO3, 3.6 mM NaH2PO4, 25 mM HEPES, 5.5 mM Glucose, and 1 mM CaCI2, pH 7.4). […] Bioluminescence resonance energy transfer (BRET) was then measured between RlucII (BRET energy donor) and rGFP (enhanced bystander ebBRET acceptor)–tagged proteins. BRET values were read for 1 s per well using a Mithras™ LB940 Multimode Microplate Reader (Berthold Technologies, Bad Wildbad, Germany) for concentration–response curves. ebBRET values were obtained by calculating the ratio of the light emitted by the energy acceptor over the light emitted by the energy donor (donor 410 ± 70 nm/acceptor 515 ± 20 nm). […] They were then fitted and analyzed in GraphPad Prism (v9.0, GraphPad Software, Inc., San Diego, CA, USA). […]

NTSR1-RlucII = target: T2, NTSR1-RlucII (Mus musculus, UniProt O88319); assay: NTSR1-RlucII internalization ebBRET assay (NTSR1-RlucII donor, rGFP-CAAX acceptor) in HEK293 cells; type: cell-based
T2 construct: expressed in transfected cells; host or cells: HEK293 (HEK293SL)
Procedure: Cells were maintained in Dulbecco’s Modified Eagle Medium (DMEM, Wisent, Saint-Jean-Baptiste, QC, Canada) supplemented with 10% fetal bovine serum (FBS, Wisent) and 1% antibiotics [100 U/mL penicillin and 100 μg/mL streptomycin (PS); Wisent]. Cells were grown at 37°C in 5% CO2 and 90% humidity and checked for mycoplasma contamination. Two days prior to experiments, cells were trypsinized (Wisent) and 35,000 cells were transfected with 1 μg of total DNA containing the appropriate expression vectors/biosensors. The total quantity of DNA was completed at 1 μg with salmon sperm DNA (Invitrogen, Waltham, MA, USA). Transfection was performed using the transfecting agent polyethylenimine 25 kD linear (PEI; Polysciences, Warrington, PA, USA) at a ratio of 3:1 PEI/DNA. Cells were then immediately plated onto poly-ornithine (Sigma-Aldrich) coated 96-well white culture plates (PerkinElmer, Waltham, MA, USA).
Forty-eight hours post-transfection, cells were washed once with phosphate-buffered saline (PBS) then incubated 1 h at 37°C in Tyrode buffer (137 mM NaCI, 0.9 mM KCI, 1 mM MgCI2, 1 1.9 mM NaHCO3, 3.6 mM NaH2PO4, 25 mM HEPES, 5.5 mM Glucose, and 1 mM CaCI2, pH 7.4). Cells were then treated with the ligands and prior to measurement treated with the substrate (5 min with 2.5 μM Coelantarazine 400a). Bioluminescence resonance energy transfer (BRET) was then measured between RlucII (BRET energy donor) and rGFP (enhanced bystander ebBRET acceptor)–tagged proteins. BRET values were read for 1 s per well using a Mithras™ LB940 Multimode Microplate Reader (Berthold Technologies, Bad Wildbad, Germany) for concentration–response curves. ebBRET values were obtained by calculating the ratio of the light emitted by the energy acceptor over the light emitted by the energy donor (donor 410 ± 70 nm/acceptor 515 ± 20 nm). Data were collected using the MicroWin 2000 software (Berthold Technologies, Bad Wildbad, Germany). They were then fitted and analyzed in GraphPad Prism (v9.0, GraphPad Software, Inc., San Diego, CA, USA).
A decrease in BRET indicates receptor loss from the plasma membrane. […] Data are expressed as raw BRET signal (Mean ± SEM) from five independent experiments.
We set-up an enhanced bystander bioluminescence energy resonance transfer (ebBRET) assay by fusing RlucII at the NTSR1 C-tail and expressing this construct together with rGFP-CAAX in HEK293 cells (Figure 1A).

[4] = test system: hippocampal neurons from Ntsr1^WT/WT mice; assay: Intracellular calcium release (Fluo-4) in hippocampal neurons from Ntsr1^WT/WT mice; type: cell-based, mouse
[5] = test system: Ntsr1^Venus/Venus and Ntsr1^WT/WT mice; assay: Locomotor activity in activity boxes after i.p. injection; type: in vivo, mouse
Procedure: Locomotor activity was measured using Plexiglas activity boxes (20 × 20 × 20 cm) surrounded by horizontal and vertical infrared sensor beams (Versamax Omnitech Electronics, Columbus, OH, USA) during the light phase. The total numbers of animals used in locomotion experiments were n = 16 Ntsr1^Venus/Venus and n = 15 Ntsr1^WT/WT mice. Animals were habituated to the room in singly housed cages with home bedding for 1 h, before being injected with either 0.9% saline, 0.2, 0.5, 1, 5 mg/kg, PD149163, dissolved in 0.9% saline, and returned to their home cages for 30 min. Then mice were placed in horizontally opposed chambers, and horizontal movement (cm) was measured over the course of 2 h, in bins of 10 min.
Having established evidence supporting functional NTSR1-Venus receptor signaling (Gq/Ca2+) and receptor endocytosis we next evaluated behavioral responses in these animals. […] First, when animals were not yet habituated to the activity chambers and only received saline injections, we observed somewhat higher activity counts for Ntsr1^Venus/Venus compared to Ntsr1^WT/WT animals (Supplementary Figure 1). […] A significant difference at 0.2 mg/kg and a trend that was not significant at higher doses (0.5, 1, or 5 mg/kg) was observed between Ntsr1^Venus/Venus and Ntsr1^WT/WT animals (Figure 2I). […]

T2 sequence (O88319 whole entry): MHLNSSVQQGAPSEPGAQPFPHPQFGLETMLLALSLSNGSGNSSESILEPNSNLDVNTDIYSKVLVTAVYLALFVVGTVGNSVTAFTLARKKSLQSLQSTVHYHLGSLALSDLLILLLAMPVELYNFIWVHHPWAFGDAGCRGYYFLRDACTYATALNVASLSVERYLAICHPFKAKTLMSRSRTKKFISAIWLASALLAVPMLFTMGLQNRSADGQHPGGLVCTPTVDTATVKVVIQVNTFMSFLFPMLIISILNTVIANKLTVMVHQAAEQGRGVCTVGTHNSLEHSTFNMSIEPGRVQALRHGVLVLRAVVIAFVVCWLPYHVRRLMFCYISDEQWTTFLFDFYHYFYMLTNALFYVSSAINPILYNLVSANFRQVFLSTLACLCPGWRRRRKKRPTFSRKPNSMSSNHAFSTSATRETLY
T1 sequence (O88319 whole entry): as above

Structure (SMILES): CCOC(=O)[C@H](CC(C)C)NC(=O)[C@@H](NC(=O)[C@H](Cc1c[nH]c2ccccc12)NC(=O)[C@@H]1CCCN1C(=O)[C@H](CCCCN)NC[C@@H](N)CCCCN)C(C)(C)C [PD149163, PD149163 tetrahydrochloride hydrate] (H-[X1]PW[Tle]L-OEt; N-terminus and C-terminus assumed)
- intracellular calcium peak increase ([1]; 0.1 μM): 2 fold
- intracellular calcium peak increase ([1]; 1 μM): 2 fold
- time course of NTSR1-Venus in early endosomes (NTSR1-Venus [2]; 1 μM, 5 to 60 min): remained stable
- NTSR1-Venus internalization, live confocal imaging (NTSR1-Venus [2]; 1 μM, 20 min live imaging of hippocampal neurons): robust internalization of the receptor
- percentage of endosomes containing NTSR1 after 60 min, PD149163 vs neurotensin (NTSR1-Venus [2]; 1 μM, 60 min): significantly higher percentage
- NTSR1-Venus redistribution to endosomes (% EEA1 vesicles) (NTSR1-Venus [2]; 1 μM, within the first 5 min of agonist treatment): 92.7% ± 6.9
- EC50 (NTSR1-Venus [2]; Ntsr1^Venus/Venus hippocampal neurons, 5 min of agonist treatment, read-out: EC50, NTSR1-Venus endocytosis (ratio of Venus and EEA1 positive to total EEA1 positive endosomes)): 465 nM
- EC50 (NTSR1-Venus [3]; given as LogEC50 (negative sign), read-out: Potency [LogEC50 (M)], Gq activation, NTSR1-Venus (converted)): 3.05e-08 M
- Efficacy (Raw BRET), Gq activation, NTSR1-Venus (NTSR1-Venus [3]): 0.476 Raw BRET and 0.476 ± 0.009 Raw BRET
- EC50 (NTSR1-RlucII; NTSR1-RlucII, read-out: potency to induce NTSR1 internalization): 3.07e-07 M
- Efficacy (Raw BRET), NTSR1-RlucII internalization (NTSR1-RlucII; decrease in BRET = receptor loss from membrane, mean ± SEM): −0.245 Raw BRET and −0.245 ± 0.008 Raw BRET
- EC50 (NTSR1-RlucII; given as LogEC50 (negative sign), mean ± SEM, five independent experiments, read-out: Potency [LogEC50 (M)], NTSR1-RlucII internalization (converted)): 3.07e-07 M
- intracellular calcium peak increase ([4]; 0.1 μM): 2 fold
- intracellular calcium peak increase ([4]; 1 μM): 2 fold
- hypolocomotion in Ntsr1^Venus/Venus and Ntsr1^WT/WT animals ([5]; 0.5 mg/kg i.p., measured 30 min after injection): induced NTSR1 mediated hypolocomotion to a similar extent
- total distance traveled over 2 h as compared to saline animals ([5]; i.p. 0.2, 0.5, 1, 5 mg/kg, both genotypes): dose-dependent decrease
